From patent US4186184A, “Selective administration of drug with ocular therapeutic system” (priority 1979, dated 1980)

What was measured:
[1] = in vivo
Procedure: Ocular dispensing system of elliptical shape for administering a drug to the tissue compartments of the eye over a prolonged period of time and having a length of 4 to 20 millimeters, a width of 1 to 15 millimeters and a thickness of 0.1 to 4 millimeters are prepared by mixing liquid polydimethylsiloxane, chloramphenicol and stannous octate and curing the mixture at room temperature. The resulting matrix is placed in a pre-shaped and sized ethylene-vinyl acetate copolymer tube and the opened end adhesively sealed to provide a solid matrix containing drug. Then, 90% of the exposed surface of the copolymer is surrounded with cross-linked drug impermeable polyamide.

[2] = set-up: species or system New Zealand white rabbits; details: rabbit, in vivo
Procedure: After the ocular systems were in the cul-de-sac 24 hours, they were removed, and a tear sample collected for measuring its pilocarpine content. Then, the systems were returned to the cul-de-sac for one-half hour, the rabbits sacrificed, and an aqueous humor sample immediately withdrawn for measuring the pilocarpine content thereof.
The sutures thus placed, restricted the movement of the ocular systems so that lateral and vertical movement of the ocular systems could not exceed a distance of more than 2 mm. Tear samples were collected and processed in the same way as were tear samples from ocular systems releasing 20 and 40 micrograms per hour.
A second set of ocular systems were used in these experiments and they were manufactured with a size and shape that corresponded to the above ocular systems, except that these latter systems were unireleasing ocular systems. That is, the ocular systems released pilocarpine from a single portal. […] These systems were positioned in the cul-de-sac, with the portal oriented towards the sclera, and tears and aqueous humor samples were taken and analyzed for their pilocarpine content as described above. […]
Selection of an ocular drug receptor site for administering a drug thereto can be easily ascertained by following the above procedures. […] For example, the physiological effect can be determined by measuring ocular pressure and increased vision. […]

[3] = rabbit, in vivo
[4] = cited from earlier work
[5] = Release of drug from osmotic ocular therapeutic system in simulated ocular aqueous environment (UV, 215 nm); format: physicochemical
Procedure: A drug delivery system for the prolonged release of pilocarpine nitrate to the internal part of the eye is prepared and tested in the following manner: first, a reservoir formed of a drug and a polymer in intimate mixture is prepared according to the described procedure. A 7 gram portion of micronized pilocarpine nitrate is admixed with 3 grams of an ethylene-vinyl acetate copolymer having a vinyl acetate content of about 40% and having a melt index of […], as measured by ASTM D 1238-modified test. The copolymer has a tensile strength of about 600-700 psi and an elongation at break of 1400% to 1500%. It is impermeable to pilocarpine nitrate but permeable to water. […] The pilocarpine nitrate micronized particles are on average ~40 microns in diameter. The mixture is heated to 120° C. and cast as a 0.6 mm thick film. Next, a thin, water and drug impermeable thin film of butyl rubber is laminated to one side of the film thereby forming a system with a single drug portal. Finally, a number of 6 mm discs, suitable in size for insertion and retention in the eye, are cut from the 0.6 mm thick film. These discs have a portal with a surface area of […]. Osmotic bursting devices are the invention of Michaels and Gulloid as described in United States Patent Application Ser. No. 578,979 filed on May 19, 1975.
The release of drug from the ocular therapeutic system is determined by placing the systems in a simulated ocular aqueous environment. The outermost drug depots imbibs water through the sole exposed surface, swell, and burst their enclosing membranes, releasing their drug from the reservoir and exposing innermost depots. The amount of drug released in this rate controlled osmotic system is monitored by a UV spectrometer set at 215 nanometer wavelength. A relatively rapid release of pilocarpine nitrate begins to be noticed. The release continues for about 22 hours at a rate gradually decreasing from an initial 400 micrograms per hour to about 250 micrograms per hour after 22 hours. After 22 hours, the release rate falls rapidly.

[6] = Drug release rate through system membranes (Example 8); format: physicochemical; details: area 1 cm^2, membranes 2 mils thick
Procedure: Following the procedure set forth in Example 1, an ocular drug delivery system shaped like a circle 6 mm by 2.5 mm is prepared according to the described procedure except one of the membrane is formed from commercially available laminate of cellulose acetate and nylon-66 that is substantially impermeable to the passage of hydrocortisone alcohol in the reservoir of the system. The area of the system is 1 cm^2, and the membranes are 2 mils thick. The drug release rate for the ethylene-vinyl acetate copolymer film which is permeable to the steroid is about 40 micrograms per hour, and the release rate for the laminate cellulose acetate nylon is about 1 to 2 micrograms per hour.

[7] = Example 16, single portal osmotic system

O=C(N[C@H](CO)[C@H](O)c1ccc([N+](=O)[O-])cc1)C(Cl)Cl [chloramphenicol]
Discomfort or irritation in the eye [1]: no discomfort or irritation

CC[C@@H]1C(=O)OC[C@@H]1Cc1cncn1C [pilocarpine]
Absorption and transfer into aqueous humor from bulbar side relative to palpebral side [2]: at least 10 times
Aqueous humor pilocarpine concentration increase per 5 μg/hr increase in rate of release per portal [3]: 0.4 μg/ml per 5 μg/hr
Mean aqueous humor pilocarpine concentration with palpebral delivery relative to bulbar delivery [3]: 11%

CC[C@@H]1C(=O)OC[C@@H]1Cc1cncn1C [pilocarpine nitrate]
Solubility in water [4]: about 25%
Duration of release ([5]; Example 16, release rate falls rapidly thereafter): about 22 hours
Release rate after 22 hours [5, 7]: about 250 micrograms per hour
Release rate, initial [5, 7]: 400 micrograms per hour
Aqueous concentrations of osmotic system compared with diffusional systems [3]: substantially similar

C[C@]12CCC(=O)C=C1CC[C@@H]1[C@@H]2[C@@H](O)C[C@@]2(C)[C@H]1CC[C@]2(O)C(=O)CO [hydrocortisone alcohol]
Drug release rate for the ethylene-vinyl acetate copolymer film [6]: about 40 micrograms per hour
